# Laboratory results published in PMC6405930, “Conservation of the Amyloid Interactome Across Diverse Fibrillar Structures” (Scientific Reports, 2019).
# Legend:
# Ab1 fibrils [1] = test system: T1, Ab1 fibrils; test: Fibril incubation with plasma, quantitative MS/MS of bound proteins; assay type: binding, human; settings: 50:1 w/w plasma protein:fibril
# T1 construct: Synthetic amyloid β peptide 1–40 was purchased from Caslo Aps (Lyngby, Denmark); purchased Caslo Aps (Lyngby, Denmark); host or cells: synthetic peptide
# Procedure: (§1) Plasma and CSF solutions were centrifuged (40,000 g, 20 min) to remove any aggregates. The protein concentration was determined using 280 nm absorbance assuming 1 Abs = 1 mg/mL. Samples with fibril material (20 μg), plasma (500 μg) or CSF (40 μg) proteins were prepared in 200 μL PBS buffer with 5 mM EDTA. Control samples (without fibril material) were prepared similarly. All samples were incubated at room temperature for one hour under gentle agitation. Fibrils and fibril-bound proteins were pelleted by centrifugation at 17,000 g for 30 minutes. The supernatant (175 μL) was removed and the aggregate was re-suspended in 175 μL PBS and pelleted again before further preparation for gel analysis and spin-filter assisted digest for quantitative MS/MS.
# (§2) The fibril-protein pellets were transferred to spin-filters (0.22 μm), washed twice in PBS (100 μL) and once in 1 M NaCl (100 μL). The fibrils and fibril-bound proteins were dissolved by one-hour incubation in 100 μL 6 M guanidinium chloride followed by elution from the spin-filter. The eluted proteins were loaded onto a 3 kDa MWCO filter unit for filter-assisted unfolding, reduction, alkylation, and trypsin digestion. In brief, samples were washed twice in 8 M urea, once in 8 M urea with 50 mM DTT, once in 8 M urea with 50 mM iodoaceteamide, and twice in 8 M Urea. The filter units were dried by centrifugation (14,000 g in 30 minutes) after every addition. Trypsin digestion was carried out with 0.25 μg sequencing grade trypsin from Sigma Aldrich in 50 mM ammonium bicarbonate overnight at 37 °C. The tryptic peptides were collected by centrifugation, acidified with TFA (0.1%) and micro-purified using POROS R2 column material (Applied Biosystems) packed in P200 pipette tips (Sarstedt).
# (§3) LC-MS/MS analyses were performed on an EASY-nLC II system (Thermo Fisher Scientific) connected to a TripleTOF 5600+ mass spectrometer (Sciex) equipped with a NanoSpray III source (Sciex) and operated under Analyst TF 1.6.0 control.
# (§4) The micro-purified tryptic peptides were dissolved in 0.1% formic acid, injected and trapped on an in-house packed trap column (2 cm × 100 μm I.D) with RP ReproSil-Pur C18-AQ 3 μm resin (Dr. Maisch GmbH). Peptides were eluted from the trap column and separated on a 15 cm analytical column (75 μm i.d.) packed in-house in a pulled emitter with RP ReproSil-Pur C18-AQ 3 μm resin (Dr. Maisch GmbH). Elution from the analytical column was performed with a linear gradient from 5% to 35% phase B (90% acetonitrile with 0.1% formic acid) over 20 min for protein identification and 50 min for quantitative analysis, respectively.
# (§5) All samples were analysed three times, yielding nine MS/MS experiments for each fibril for both plasma and CSF. For the area-based extracted ion chromatogram (XIC) quantification, the acquisition method was set up as an information-dependent acquisition (IDA) experiment collecting up to 25 MS/MS spectra in each 1.6 sec cycle using an exclusion window of 6 sec.
# (§6) XIC quantification was based on the average ion intensity of the three most abundant peptides for each protein. Only proteins quantified in at least four out of nine MS/MS experiments per fibril were included in the quantification. The total ion scores were visualized after grouping the proteins according to function (Figure S11).
# (§7) For each MS/MS experiment, the ion intensities of the individual proteins were normalized to the total ion intensity of that MS/MS experiment to achieve a relative protein composition. The contribution of each protein was averaged over all nine MS/MS experiments (Tables 1 and 2).
# Ab2 fibrils [2] = test system: T2, Ab2 fibrils; test: as above; assay type: binding, human; settings: 50:1 w/w plasma protein:fibril
# T2 construct: Two structurally distinct fibrils of the Aβ(1–40) peptide associated with AD
# Procedure: as §1, with “Samples with fibril material (20 μg), plasma (500 μg) or CSF (40 μg) proteins were prepared in 200 μL PBS buffer with 5 mM EDTA.” left out
# as §2, §3, §4, §5, §6, §7
# glucagon fibrils [3] = target: T3, glucagon fibrils (Homo sapiens, UniProt P01275); test: as above; assay type: binding; settings: 50:1 w/w plasma protein:fibril
# T3 construct: fibrils of the peptide hormone glucagon
# T3 sequence (P01275 53-81 limits assumed): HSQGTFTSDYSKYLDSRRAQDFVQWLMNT
# Procedure: as §1, with “Samples with fibril material (20 μg), plasma (500 μg) or CSF (40 μg) proteins were prepared in 200 μL PBS buffer with 5 mM EDTA.” left out
# as §2, §3, §4, §5, §6, §7
# C-36 fibrils [4] = target: T4, C-36 fibrils (Homo sapiens, UniProt P01009); test: as above; assay type: binding; settings: 50:1 w/w plasma protein:fibril
# T4 construct: the 36 residue C-terminal fragment of α1-antitrypsin (C-36)
# T4 sequence (P01009 383-418 limits assumed): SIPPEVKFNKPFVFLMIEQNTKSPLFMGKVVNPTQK
# Procedure: as §1, with “Samples with fibril material (20 μg), plasma (500 μg) or CSF (40 μg) proteins were prepared in 200 μL PBS buffer with 5 mM EDTA.” left out
# as §2, §3, §4, §5, §6, §7
# αSN fibrils [5] = target: T5, αSN fibrils (Homo sapiens, UniProt P37840); test: as above; assay type: binding; settings: 50:1 w/w plasma protein:fibril
# Procedure: as §1, with “Samples with fibril material (20 μg), plasma (500 μg) or CSF (40 μg) proteins were prepared in 200 μL PBS buffer with 5 mM EDTA.” left out
# as §2, §3, §4, §5, §6, §7
# FAS4-AD aggregates [6] = test system: T6, FAS4-AD aggregates; test: as above; assay type: binding, human; parameters: key to Identification status of plasma protein bound: FAS4-AD: *: Identified, but not quantified; —: Not identified in any of the samples
# T6 construct: aggregates of a mutated version of the FAS1-4 domain of TGFBIp
# Procedure: as §1, with “Samples with fibril material (20 μg), plasma (500 μg) or CSF (40 μg) proteins were prepared in 200 μL PBS buffer with 5 mM EDTA.” left out
# as §2, §3, §4, §5, §6, §7
# Ab1 fibrils [7] = test system: T1, Ab1 fibrils; test: Fibril incubation with CSF, quantitative MS/MS of bound proteins; assay type: binding, human; parameters: key to Identification status of CSF protein bound: Ab1: *: Identified, but not quantified; —: Not identified in any of the samples; settings: for Relative composition of CSF proteins bound: Ab1: 4:1 w/w CSF protein:fibril
# Procedure: as §1, with “Samples with fibril material (20 μg), plasma (500 μg) or CSF (40 μg) proteins were prepared in 200 μL PBS buffer with 5 mM EDTA.” left out
# as §2, §3, §4, §5, §6, §7
# Ab2 fibrils [8] = test system: T2, Ab2 fibrils; test: as above; assay type: binding, human; parameters: key to Identification status of CSF protein bound: Ab2: *: Identified, but not quantified; —: Not identified in any of the samples; settings: for Relative composition of CSF proteins bound: Ab2: 4:1 w/w CSF protein:fibril
# Procedure: as §1, with “Samples with fibril material (20 μg), plasma (500 μg) or CSF (40 μg) proteins were prepared in 200 μL PBS buffer with 5 mM EDTA.” left out
# as §2, §3, §4, §5, §6, §7
# glucagon fibrils [9] = target: T3, glucagon fibrils; test: as above; assay type: binding; settings: 4:1 w/w CSF protein:fibril
# Procedure: as §1, with “Samples with fibril material (20 μg), plasma (500 μg) or CSF (40 μg) proteins were prepared in 200 μL PBS buffer with 5 mM EDTA.” left out
# as §2, §3, §4, §5, §6, §7
# C-36 fibrils [10] = target: T4, C-36 fibrils; test: as above; assay type: binding; parameters: key to Identification status of CSF protein bound: C-36: *: Identified, but not quantified; —: Not identified in any of the samples; settings: for Relative composition of CSF proteins bound: C-36: 4:1 w/w CSF protein:fibril
# Procedure: as §1, with “Samples with fibril material (20 μg), plasma (500 μg) or CSF (40 μg) proteins were prepared in 200 μL PBS buffer with 5 mM EDTA.” left out
# as §2, §3, §4, §5, §6, §7
# αSN fibrils [11] = target: T5, αSN fibrils; test: as above; assay type: binding; parameters: key to Identification status of CSF protein bound: αSN: *: Identified, but not quantified; —: Not identified in any of the samples; settings: for Identification status of CSF protein bound: αSN: symbol cells; for Relative composition of CSF proteins bound: αSN: 4:1 w/w CSF protein:fibril
# Procedure: as §1, with “Samples with fibril material (20 μg), plasma (500 μg) or CSF (40 μg) proteins were prepared in 200 μL PBS buffer with 5 mM EDTA.” left out
# as §2, §3, §4, §5, §6, §7
# FAS4-AD aggregates [12] = test system: T6, FAS4-AD aggregates; test: as above; assay type: binding, human; parameters: key to Identification status of CSF protein bound: FAS4-AD: *: Identified, but not quantified; —: Not identified in any of the samples; settings: for Identification status of CSF protein bound: FAS4-AD: symbol cells
# Procedure: as §1, with “Samples with fibril material (20 μg), plasma (500 μg) or CSF (40 μg) proteins were prepared in 200 μL PBS buffer with 5 mM EDTA.” left out
# as §2, §3, §4, §5, §6, §7
substance,measurement,setting,value
Fibrinogen γ chain: plasma protein bound to fibrils,Relative composition of plasma proteins bound: Ab1,Ab1 fibrils [1],9.8 ± 0.3 % of total protein
same,Relative composition of plasma proteins bound: Ab2,Ab2 fibrils [2],7.0 ± 0.3 % of total protein
same,Relative composition of plasma proteins bound: Glucagon,glucagon fibrils [3],6.7 ± 0.3 % of total protein
same,Relative composition of plasma proteins bound: C-36,C-36 fibrils [4],11.7 ± 2.0 % of total protein
same,Relative composition of plasma proteins bound: αSN,αSN fibrils [5],7.7 ± 1.3 % of total protein
same,Relative composition of plasma proteins bound: FAS4-AD,FAS4-AD aggregates [6]; 50:1 w/w plasma protein:fibril,1.5 ± 0.4 % of total protein
Fibronectin,Relative composition of plasma proteins bound: C-36,C-36 fibrils [4],0.2 ± 0.0 % of total protein
same,Relative composition of plasma proteins bound: αSN,αSN fibrils [5],1.0 ± 0.0 % of total protein
same,Relative composition of CSF proteins bound: Ab1,Ab1 fibrils [7],0.9 ± 0.0 % of total protein
same,Relative composition of CSF proteins bound: Ab2,Ab2 fibrils [8],1.2 ± 0.3 % of total protein
same,Relative composition of CSF proteins bound: Glucagon,glucagon fibrils [9],0.2 ± 0.1 % of total protein
same,Relative composition of CSF proteins bound: C-36,C-36 fibrils [10],0.7 ± 0.1 % of total protein
same,Identification status of CSF protein bound: αSN,αSN fibrils [11],*
same,Identification status of CSF protein bound: FAS4-AD,FAS4-AD aggregates [12],—
Gelsolin,Relative composition of CSF proteins bound: Ab1,Ab1 fibrils [7],2.9 ± 0.1 % of total protein
same,Relative composition of CSF proteins bound: Ab2,Ab2 fibrils [8],3.5 ± 0.6 % of total protein
same,Relative composition of CSF proteins bound: Glucagon,glucagon fibrils [9],0.8 ± 0.1 % of total protein
same,Relative composition of CSF proteins bound: C-36,C-36 fibrils [10],1.9 ± 0.2 % of total protein
same,Relative composition of CSF proteins bound: αSN,αSN fibrils [11],5.0 ± 0.9 % of total protein
same,Identification status of CSF protein bound: FAS4-AD,FAS4-AD aggregates [12],—
Ig κ chain C region: CSF protein bound to fibrils,Identification status of CSF protein bound: Ab1,Ab1 fibrils [7]; symbol cells,*
same,Identification status of CSF protein bound: Ab2,Ab2 fibrils [8]; symbol cells,*
same,Relative composition of CSF proteins bound: Glucagon,glucagon fibrils [9],0.5 ± 0.0 % of total protein
same,Identification status of CSF protein bound: C-36,C-36 fibrils [10]; symbol cells,*
same,Identification status of CSF protein bound: αSN,αSN fibrils [11],*
same,Identification status of CSF protein bound: FAS4-AD,FAS4-AD aggregates [12],*
Transthyretin,Relative composition of CSF proteins bound: Ab1,Ab1 fibrils [7],3.0 ± 0.5 % of total protein
same,Relative composition of CSF proteins bound: Ab2,Ab2 fibrils [8],4.0 ± 1.3 % of total protein
same,Relative composition of CSF proteins bound: Glucagon,glucagon fibrils [9],1.1 ± 0.2 % of total protein
same,Relative composition of CSF proteins bound: C-36,C-36 fibrils [10],2.4 ± 0.2 % of total protein
same,Relative composition of CSF proteins bound: αSN,αSN fibrils [11],4.3 ± 1.1 % of total protein
same,Relative composition of CSF proteins bound: FAS4-AD,FAS4-AD aggregates [12]; 4:1 w/w CSF protein:fibril,4.4 ± 0.3 % of total protein
Vitamin K-dependent protein S: plasma protein bound to fibrils,Relative composition of plasma proteins bound: Ab1,Ab1 fibrils [1],1.1 ± 0.0 % of total protein
same,Relative composition of plasma proteins bound: Ab2,Ab2 fibrils [2],1.3 ± 0.1 % of total protein
same,Relative composition of plasma proteins bound: Glucagon,glucagon fibrils [3],0.8 ± 0.1 % of total protein
same,Relative composition of plasma proteins bound: C-36,C-36 fibrils [4],0.6 ± 0.1 % of total protein
same,Relative composition of plasma proteins bound: αSN,αSN fibrils [5],2.5 ± 0.1 % of total protein
same,Identification status of plasma protein bound: FAS4-AD,FAS4-AD aggregates [6]; symbol cells,*
